SMILES strings stand for the structures.

In this assay the test system is roots of corn plants. Put plainly: endomycorrhizal mean infection percentage (MIP) bioassay. To be noted: both trials. It is filed as in vivo, Zea Maize 'Golden Bantam'. How it is done: An endomycorrhizal mean infection percentage (MIP) bioassay was initiated to test mycorrhizal infectivity of a liquid mycorrhizal formulation treated with bactericides. The MIP bioassay is used to determine the effect of endomycorrhizal colonization in the roots of corn plants on the treatment applied. The MIP bioassay was adapted to utilize 15 mL of liquid per pot. The liquid mycorrhizal formulation which was tested was MycoApply Ultra (Novozymes Biologicals), which is a mycorrhizal inoculant that contains several species of endomycorrhizas. For a ready to use fertilizer, the optimal amount of mycorrhizas to be added based on application rate of ready to use fertilizer, mycorrhizal infectivity, and cost effectiveness was 0.1 propagules of mycorrhizas per 1.0 mL of ready to use fertilizer. MycoApply Ultra contains 286 propagules per gram, therefore 0.00034 g MycoApply Ultra in 1 mL of ready to use fertilizer will provide the desired concentration of mycorrhizal propagules, 0.1 prop/mL. The MycoApply Ultra was tested with two different concentrates 10× (0.0034 g/mL) and 100× (0.034 g/mL). The bactericide used in all treatments for Trial 1 was 500 ppm Kathon and 250 ppm Bronopol. There were seven treatment groups, each contained 5 replicates. Treatment 1 was a water only control. […] At harvest the parameter evaluated was percent mycorrhizal colonization. […]

With `O=[N+]([O-])C(Br)(CO)CO` [Bronopol, 2-bromo-2-nitro-1,3-propanediol], the “ability of mycorrhizas to germinate and infect roots in presence of bactericide” value is recorded as “increase”.
